Source: ChEMBL document CHEMBL4382242, “Novel racemosin B derivatives as new therapeutic agents for aggressive breast cancer” (Bioorg Med Chem, 2018)
Activity calls are given as the source filed them. The rule behind the calls is not given here.

Test system: HEL
Assay: Growth inhibition of HEL cells after 72 hrs by MTT assay
Assay type: functional, cell-based
Settings: Homo sapiens

SMILES	IC50 [nM]
COc1cc([C@@H]2c3cc4c(cc3[C@@H](O[C@@H]3O[C@@H]5CO[C@@H](C)O[C@H]5[C@H](O)[C@H]3O)[C@H]3COC(=O)[C@H]23)OCO4)cc(OC)c1O [ETOPOSIDE]	920

Test system: MDA-MB-231
Assay: Growth inhibition of human MDA-MB-231 cells at 1 to 5 uM after 72 hrs by MTT assay
Assay type: functional, cell-based
Settings: not given

SMILES	growth inhibition (GI)
COc1cc([C@@H]2c3cc4c(cc3[C@@H](O[C@@H]3O[C@@H]5CO[C@@H](C)O[C@H]5[C@H](O)[C@H]3O)[C@H]3COC(=O)[C@H]23)OCO4)cc(OC)c1O [ETOPOSIDE]	Active

Test system: MDA-MB-231
Assay: Cell cycle arrest in human MDA-MB-231 cells assessed as accumulation at G1 phase at 5 uM after 48 hrs by propidium iodide staining based flow cytometry (reference value: 3.19%)
Assay type: functional
Settings: not given

SMILES	Activity [%]
COc1cc([C@@H]2c3cc4c(cc3[C@@H](O[C@@H]3O[C@@H]5CO[C@@H](C)O[C@H]5[C@H](O)[C@H]3O)[C@H]3COC(=O)[C@H]23)OCO4)cc(OC)c1O [ETOPOSIDE]	8.57

Test system: not listed separately
Assay: Growth inhibition of human WM35 cells after 72 hrs by MTT assay
Assay type: functional
Settings: WM35, 72 h

SMILES	IC50 [nM]
COc1cc([C@@H]2c3cc4c(cc3[C@@H](O[C@@H]3O[C@@H]5CO[C@@H](C)O[C@H]5[C@H](O)[C@H]3O)[C@H]3COC(=O)[C@H]23)OCO4)cc(OC)c1O [ETOPOSIDE]	400

Test system: MDA-MB-231
Assay: Cell cycle arrest in human MDA-MB-231 cells assessed as accumulation at G1 phase at 5 uM after 24 hrs by propidium iodide staining based flow cytometry (reference value: 47.9%)
Assay type: functional
Settings: not given

SMILES	Activity [%]
COc1cc([C@@H]2c3cc4c(cc3[C@@H](O[C@@H]3O[C@@H]5CO[C@@H](C)O[C@H]5[C@H](O)[C@H]3O)[C@H]3COC(=O)[C@H]23)OCO4)cc(OC)c1O [ETOPOSIDE]	7.59

Test system: MDA-MB-231
Assay: Induction of apoptosis in human MDA-MB-231 cells assessed as decrease in Bcl2 protein expression at 5 uM after 16 hrs by Western blot analysis
Assay type: functional, cell-based
Settings: not given

SMILES	Activity
COc1cc([C@@H]2c3cc4c(cc3[C@@H](O[C@@H]3O[C@@H]5CO[C@@H](C)O[C@H]5[C@H](O)[C@H]3O)[C@H]3COC(=O)[C@H]23)OCO4)cc(OC)c1O [ETOPOSIDE]	Active

Test system: MDA-MB-231
Assay: Induction of apoptosis in human MDA-MB-231 cells assessed as early apoptotic cells at 5 uM after 48 hrs by Annexin V-FITC/propidium iodide staining based flow cytometry (reference value: 5.3%)
Assay type: functional
Settings: not given

SMILES	Activity [%]
COc1cc([C@@H]2c3cc4c(cc3[C@@H](O[C@@H]3O[C@@H]5CO[C@@H](C)O[C@H]5[C@H](O)[C@H]3O)[C@H]3COC(=O)[C@H]23)OCO4)cc(OC)c1O [ETOPOSIDE]	5.5

Test system: MDA-MB-231
Assay: Induction of apoptosis in human MDA-MB-231 cells assessed as necrotic cells at 5 uM after 24 hrs by Annexin V-FITC/propidium iodide staining based flow cytometry (reference value: 0.7%)
Assay type: functional
Settings: not given

SMILES	Activity [%]
COc1cc([C@@H]2c3cc4c(cc3[C@@H](O[C@@H]3O[C@@H]5CO[C@@H](C)O[C@H]5[C@H](O)[C@H]3O)[C@H]3COC(=O)[C@H]23)OCO4)cc(OC)c1O [ETOPOSIDE]	0.7

Test system: MDA-MB-231
Assay: Induction of apoptosis in human MDA-MB-231 cells assessed as live cells at 5 uM after 48 hrs by Annexin V-FITC/propidium iodide staining based flow cytometry (reference value: 87.6%)
Assay type: functional
Settings: not given

SMILES	Activity [%]
COc1cc([C@@H]2c3cc4c(cc3[C@@H](O[C@@H]3O[C@@H]5CO[C@@H](C)O[C@H]5[C@H](O)[C@H]3O)[C@H]3COC(=O)[C@H]23)OCO4)cc(OC)c1O [ETOPOSIDE]	75.5

Test system: MDA-MB-231
Assay: Induction of apoptosis in human MDA-MB-231 cells assessed as increase in Bax protein expression at 5 uM after 16 hrs by Western blot analysis
Assay type: functional, cell-based
Settings: not given

SMILES	Activity
COc1cc([C@@H]2c3cc4c(cc3[C@@H](O[C@@H]3O[C@@H]5CO[C@@H](C)O[C@H]5[C@H](O)[C@H]3O)[C@H]3COC(=O)[C@H]23)OCO4)cc(OC)c1O [ETOPOSIDE]	Active

Test system: MDA-MB-231
Assay: Inhibition of autophagy in human MDA-MB-231 cells assessed as increase in p62 protein expression at 5 uM after 16 hrs by Western blot analysis
Assay type: functional, cell-based
Settings: not given

SMILES	inhibition
COc1cc([C@@H]2c3cc4c(cc3[C@@H](O[C@@H]3O[C@@H]5CO[C@@H](C)O[C@H]5[C@H](O)[C@H]3O)[C@H]3COC(=O)[C@H]23)OCO4)cc(OC)c1O [ETOPOSIDE]	inactive

Test system: MDA-MB-231
Assay: Cell cycle arrest in human MDA-MB-231 cells assessed as accumulation at G2/M phase at 5 uM after 24 hrs by propidium iodide staining based flow cytometry (reference value: 18.5%)
Assay type: functional
Settings: not given

SMILES	Activity [%]
COc1cc([C@@H]2c3cc4c(cc3[C@@H](O[C@@H]3O[C@@H]5CO[C@@H](C)O[C@H]5[C@H](O)[C@H]3O)[C@H]3COC(=O)[C@H]23)OCO4)cc(OC)c1O [ETOPOSIDE]	63.98

Test system: not listed separately
Assay: Growth inhibition of human WM9 cells after 72 hrs by MTT assay
Assay type: functional
Settings: WM9, 72 h

SMILES	IC50 [nM]
COc1cc([C@@H]2c3cc4c(cc3[C@@H](O[C@@H]3O[C@@H]5CO[C@@H](C)O[C@H]5[C@H](O)[C@H]3O)[C@H]3COC(=O)[C@H]23)OCO4)cc(OC)c1O [ETOPOSIDE]	1750

Test system: MDA-MB-231
Assay: Cell cycle arrest in human MDA-MB-231 cells assessed as accumulation at S phase at 5 uM after 24 hrs by propidium iodide staining based flow cytometry (reference value: 29.76%)
Assay type: functional
Settings: not given

SMILES	Activity [%]
COc1cc([C@@H]2c3cc4c(cc3[C@@H](O[C@@H]3O[C@@H]5CO[C@@H](C)O[C@H]5[C@H](O)[C@H]3O)[C@H]3COC(=O)[C@H]23)OCO4)cc(OC)c1O [ETOPOSIDE]	19.24

Test system: MDA-MB-231
Assay: Inhibition of autophagy in human MDA-MB-231 cells assessed as LC3-2 accumulation at 5 uM after 16 hrs by DAPI staining based immunofluorescence assay
Assay type: functional, cell-based
Settings: not given

SMILES	inhibition
COc1cc([C@@H]2c3cc4c(cc3[C@@H](O[C@@H]3O[C@@H]5CO[C@@H](C)O[C@H]5[C@H](O)[C@H]3O)[C@H]3COC(=O)[C@H]23)OCO4)cc(OC)c1O [ETOPOSIDE]	inactive

Test system: K562
Assay: Growth inhibition of human K562 cells after 72 hrs by MTT assay
Assay type: functional, cell-based
Settings: K562, 72 h

IC50 [nM]	SMILES
9230	COc1cc([C@@H]2c3cc4c(cc3[C@@H](O[C@@H]3O[C@@H]5CO[C@@H](C)O[C@H]5[C@H](O)[C@H]3O)[C@H]3COC(=O)[C@H]23)OCO4)cc(OC)c1O [ETOPOSIDE]

Test system: MDA-MB-231
Assay: Cell cycle arrest in human MDA-MB-231 cells assessed as accumulation at G2/M phase at 5 uM after 48 hrs by propidium iodide staining based flow cytometry (reference value: 17.79%)
Assay type: functional
Settings: not given

SMILES	Activity [%]
COc1cc([C@@H]2c3cc4c(cc3[C@@H](O[C@@H]3O[C@@H]5CO[C@@H](C)O[C@H]5[C@H](O)[C@H]3O)[C@H]3COC(=O)[C@H]23)OCO4)cc(OC)c1O [ETOPOSIDE]	70.43

Test system: 4T1
Assay: Growth inhibition of mouse 4T1 cells after 72 hrs by MTT assay
Assay type: functional, cell-based
Settings: 4T1, 72 h

IC50 [nM]	SMILES
> 10000	COc1cc([C@@H]2c3cc4c(cc3[C@@H](O[C@@H]3O[C@@H]5CO[C@@H](C)O[C@H]5[C@H](O)[C@H]3O)[C@H]3COC(=O)[C@H]23)OCO4)cc(OC)c1O [ETOPOSIDE]

Test system: MDA-MB-231
Assay: Induction of apoptosis in human MDA-MB-231 cells assessed as late apoptotic cells at 5 uM after 48 hrs by Annexin V-FITC/propidium iodide staining based flow cytometry (reference value: 6.5%)
Assay type: functional
Settings: not given

SMILES	Activity [%]
COc1cc([C@@H]2c3cc4c(cc3[C@@H](O[C@@H]3O[C@@H]5CO[C@@H](C)O[C@H]5[C@H](O)[C@H]3O)[C@H]3COC(=O)[C@H]23)OCO4)cc(OC)c1O [ETOPOSIDE]	8.8

Test system: MDA-MB-231
Assay: Induction of apoptosis in human MDA-MB-231 cells assessed as necrotic cells at 5 uM after 48 hrs by Annexin V-FITC/propidium iodide staining based flow cytometry (reference value: 0.7%)
Assay type: functional
Settings: not given

SMILES	Activity [%]
COc1cc([C@@H]2c3cc4c(cc3[C@@H](O[C@@H]3O[C@@H]5CO[C@@H](C)O[C@H]5[C@H](O)[C@H]3O)[C@H]3COC(=O)[C@H]23)OCO4)cc(OC)c1O [ETOPOSIDE]	10.1

Target: Serine/threonine-protein kinase mTOR (Homo sapiens) (UniProt P42345)
Assay: Inhibition of mTOR phosphorylation in human MDA-MB-231 cells at 5 uM after 16 hrs by Western blot analysis
Assay type: cell-based
Settings: not given

inhibition	SMILES
inactive	COc1cc([C@@H]2c3cc4c(cc3[C@@H](O[C@@H]3O[C@@H]5CO[C@@H](C)O[C@H]5[C@H](O)[C@H]3O)[C@H]3COC(=O)[C@H]23)OCO4)cc(OC)c1O [ETOPOSIDE]

Test system: MCF7
Assay: Growth inhibition of human MCF7 cells after 72 hrs by MTT assay
Assay type: functional, cell-based
Settings: MCF7, 72 h

IC50 [nM]	SMILES
> 10000	COc1cc([C@@H]2c3cc4c(cc3[C@@H](O[C@@H]3O[C@@H]5CO[C@@H](C)O[C@H]5[C@H](O)[C@H]3O)[C@H]3COC(=O)[C@H]23)OCO4)cc(OC)c1O [ETOPOSIDE]

Test system: MDA-MB-231
Assay: Induction of apoptosis in human MDA-MB-231 cells assessed as early apoptotic cells at 5 uM after 24 hrs by Annexin V-FITC/propidium iodide staining based flow cytometry (reference value: 3.7%)
Assay type: functional
Settings: not given

SMILES	Activity [%]
COc1cc([C@@H]2c3cc4c(cc3[C@@H](O[C@@H]3O[C@@H]5CO[C@@H](C)O[C@H]5[C@H](O)[C@H]3O)[C@H]3COC(=O)[C@H]23)OCO4)cc(OC)c1O [ETOPOSIDE]	4.6

Test system: MDA-MB-231
Assay: Induction of apoptosis in human MDA-MB-231 cells assessed as live cells at 5 uM after 24 hrs by Annexin V-FITC/propidium iodide staining based flow cytometry (reference value: 90.8%)
Assay type: functional
Settings: not given

SMILES	Activity [%]
COc1cc([C@@H]2c3cc4c(cc3[C@@H](O[C@@H]3O[C@@H]5CO[C@@H](C)O[C@H]5[C@H](O)[C@H]3O)[C@H]3COC(=O)[C@H]23)OCO4)cc(OC)c1O [ETOPOSIDE]	90.7

Test system: MDA-MB-231
Assay: Growth inhibition of human MDA-MB-231 cells after 72 hrs by MTT assay
Assay type: functional, cell-based
Settings: MDA-MB-231, 72 h

IC50 [nM]	SMILES
> 10000	COc1cc([C@@H]2c3cc4c(cc3[C@@H](O[C@@H]3O[C@@H]5CO[C@@H](C)O[C@H]5[C@H](O)[C@H]3O)[C@H]3COC(=O)[C@H]23)OCO4)cc(OC)c1O [ETOPOSIDE]

Test system: MDA-MB-231
Assay: Cell cycle arrest in human MDA-MB-231 cells assessed as accumulation at S phase at 5 uM after 48 hrs by propidium iodide staining based flow cytometry (reference value: 31.71%)
Assay type: functional
Settings: not given

SMILES	Activity [%]
COc1cc([C@@H]2c3cc4c(cc3[C@@H](O[C@@H]3O[C@@H]5CO[C@@H](C)O[C@H]5[C@H](O)[C@H]3O)[C@H]3COC(=O)[C@H]23)OCO4)cc(OC)c1O [ETOPOSIDE]	15.48

Test system: MDA-MB-231
Assay: Induction of apoptosis in human MDA-MB-231 cells assessed as late apoptotic cells at 5 uM after 24 hrs by Annexin V-FITC/propidium iodide staining based flow cytometry (reference value: 4.8%)
Assay type: functional
Settings: not given

SMILES	Activity [%]
COc1cc([C@@H]2c3cc4c(cc3[C@@H](O[C@@H]3O[C@@H]5CO[C@@H](C)O[C@H]5[C@H](O)[C@H]3O)[C@H]3COC(=O)[C@H]23)OCO4)cc(OC)c1O [ETOPOSIDE]	4

Test system: MDA-MB-231
Assay: Induction of apoptosis in human MDA-MB-231 cells assessed as increase in Cyclin-B1 protein expression at 5 uM after 16 hrs by Western blot analysis
Assay type: functional, cell-based
Settings: not given

SMILES	Activity
COc1cc([C@@H]2c3cc4c(cc3[C@@H](O[C@@H]3O[C@@H]5CO[C@@H](C)O[C@H]5[C@H](O)[C@H]3O)[C@H]3COC(=O)[C@H]23)OCO4)cc(OC)c1O [ETOPOSIDE]	Active

Test system: MDA-MB-231
Assay: Induction of morphological changes in human MDA-MB-231 cells assessed as cell detachment at 5 uM after 24 hrs
Assay type: functional, cell-based
Settings: not given

SMILES	Activity
COc1cc([C@@H]2c3cc4c(cc3[C@@H](O[C@@H]3O[C@@H]5CO[C@@H](C)O[C@H]5[C@H](O)[C@H]3O)[C@H]3COC(=O)[C@H]23)OCO4)cc(OC)c1O [ETOPOSIDE]	Active
